Laboratory results as given in ChEMBL document CHEMBL4420076, “Amylin and calcitonin receptor agonist” (2017).
Peptide text beside a SMILES is read from it. * marks the point of attachment. C18 diacid = O=C(O)CCCCCCCCCCCCCCCCC(=O)*

Columns and labels:
[1] = tested on: Rattus norvegicus; assay: Reduction in food intake in Sprague-Dawley rat at 3 nmol/kg measured 0 to 24 hrs post dose relative to control; assay type: functional; set-up: scale not given: the % may be the effect or the level left
[2] = tested on: Rattus norvegicus; assay: Reduction in food intake in Sprague-Dawley rat at 3 nmol/kg measured 24 to 48 hrs post dose relative to control; assay type: functional; set-up: scale not given: the % may be the effect or the level left
[3] = target: T1, Amylin receptor AMY3; CALCR/RAMP3 (Homo sapiens, UniProt O60896+P30988); assay: Agonist activity at human amylin receptor expressed in BHK570 cells co-expressing RAMP3 assessed as increase in intracellular cAMP concentration incubated for 3 hrs in absence of albumin by CRE luciferase reporter gene assay; assay type: functional, cell-based
T1 sequence (P30988 whole entry): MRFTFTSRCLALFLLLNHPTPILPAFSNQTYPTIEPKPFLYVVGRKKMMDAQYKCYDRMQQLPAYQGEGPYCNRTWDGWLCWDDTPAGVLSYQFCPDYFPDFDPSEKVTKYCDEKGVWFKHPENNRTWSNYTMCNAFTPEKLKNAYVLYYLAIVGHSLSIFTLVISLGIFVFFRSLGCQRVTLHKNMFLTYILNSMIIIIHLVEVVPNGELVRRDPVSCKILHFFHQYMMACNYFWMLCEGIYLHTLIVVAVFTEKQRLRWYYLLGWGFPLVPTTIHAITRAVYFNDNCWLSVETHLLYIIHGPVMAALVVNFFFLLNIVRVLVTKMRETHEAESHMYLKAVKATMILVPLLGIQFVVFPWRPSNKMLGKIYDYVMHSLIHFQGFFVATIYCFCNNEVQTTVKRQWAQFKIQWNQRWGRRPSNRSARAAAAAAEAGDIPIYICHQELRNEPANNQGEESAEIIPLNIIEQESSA
T1 sequence (O60896 whole entry): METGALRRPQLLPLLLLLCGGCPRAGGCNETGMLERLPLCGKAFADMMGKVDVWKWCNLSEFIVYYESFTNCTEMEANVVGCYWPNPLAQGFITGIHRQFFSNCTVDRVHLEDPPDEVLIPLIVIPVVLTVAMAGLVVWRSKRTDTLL

[4] = target: T2, Calcitonin receptor (Homo sapiens, UniProt P30988); assay: Agonist activity at human calcitonin receptor expressed in BHK570 cells assessed as increase in intracellular cAMP concentration incubated for 3 hrs in absence of albumin by CRE luciferase reporter gene assay; assay type: functional, cell-based
T2 sequence (P30988 whole entry): T1 sequence (P30988 whole entry)

[5] = Solubility in 100 mM glycylglycine buffer at pH 3.0 incubated for 18 hrs by UPLC analysis; assay type: physicochemical
[6] = Solubility in 100 mM glycylglycine buffer at pH 4.0 incubated for 18 hrs by UPLC analysis; assay type: physicochemical
[7] = Solubility in 100 mM bistrispropane buffer at pH 6.0 incubated for 18 hrs by UPLC analysis; assay type: physicochemical
[8] = Solubility in 100 mM glycylglycine buffer at pH 5.0 incubated for 18 hrs by UPLC analysis; assay type: physicochemical
[9] = Solubility in 100 mM bistrispropane buffer at pH 6.5 incubated for 18 hrs by UPLC analysis; assay type: physicochemical
[10] = Solubility in 100 mM bistrispropane buffer at pH 7.0 incubated for 18 hrs by UPLC analysis; assay type: physicochemical
[11] = Solubility in 100 mM bistrispropane buffer at pH 7.5 incubated for 18 hrs by UPLC analysis; assay type: physicochemical
[12] = Solubility in 100 mM bistrispropane buffer at pH 8.0 incubated for 18 hrs by UPLC analysis; assay type: physicochemical
[13] = Half life in LYD pig at 1.6 mM, sc co-formulated with 1.6 mM liraglutide by LC-MS analysis; assay type: ADME, organism-based, Sus scrofa; settings: in vivo
[14] = Dose normalized AUC in LYD pig at 1.6 mM, sc co-formulated with 1.6 mM liraglutide by LC-MS analysis; assay type: ADME, organism-based, Sus scrofa; settings: in vivo, 1600 µM
[15] = Half life in LYD pig at 1.6 mM, sc co-dosed with 1.6 mM liraglutide by LC-MS analysis; assay type: ADME, organism-based, Sus scrofa; settings: in vivo
[16] = Dose normalized AUC in LYD pig at 1.6 mM, sc co-dosed with 1.6 mM liraglutide by LC-MS analysis; assay type: ADME, organism-based, Sus scrofa; settings: in vivo, 1600 µM
[17] = tested on: Rattus norvegicus; assay: (§1) Reduction in body weight in Sprague-Dawley rat model of diet-induced obesity assessed as relative body weight at 3.7 ug/kg, sc dosed dosed once daily during 0 to 15 days and measured on day 15 relative to initial body weight (reference value: 98.8 +/- 0.8%); assay type: functional; set-up: scale not given: the % may be the effect or the level left
[18] = tested on: Rattus norvegicus; assay: Reduction in body weight in Sprague-Dawley rat model of diet-induced obesity assessed as relative body weight at 3.7 ug/kg, sc dosed dosed once daily during 0 to 28 days and measured on day 28 relative to initial body weight (reference value: 99.8 +.- 1.1%); assay type: functional; set-up: scale not given: the % may be the effect or the level left
[19] = tested on: Rattus norvegicus; assay: as §1, with “daily and co-treated with 0.1 mg/kg, sc liraglutide” for “daily”; assay type: functional; set-up: scale not given: the % may be the effect or the level left
[20] = tested on: Rattus norvegicus; assay: as §1, with “daily and co-treated with 0.1 mg/kg, sc liraglutide” for “daily”, “28” for “15”; assay type: functional; set-up: scale not given: the % may be the effect or the level left
[21] = target: T1, Amylin receptor AMY3; CALCR/RAMP3; assay: Displacement of [125I]-labeled rat amylin from human amylin receptor expressed in BHK tkts13 whole cells co-expressing RAMP3 incubated for 60 mins by scintillation proximity assay; assay type: cell-based

`CC(C)C[C@H](NC(=O)[C@H](C)NC(=O)[C@H](C)NC(=O)[C@@H](NC(=O)[C@H](CO)NC(=O)[C@H](CC(C)C)NC(=O)[C@H](CCC(=O)O)NC(=O)[C@H](CO)NC(=O)[C@H](C)NC(=O)[C@H](CCC(=O)O)NC(=O)CCCCCCCCCCCCCCCCC(=O)O)[C@@H](C)O)C(=O)NCC(=O)N[C@@H](CCCNC(=N)N)C(=O)N[C@@H](CC(C)C)C(=O)N[C@@H](CO)C(=O)N[C@@H](C)C(=O)N[C@@H](CCC(=O)O)C(=O)N[C@@H](CC(C)C)C(=O)N[C@@H](Cc1cnc[nH]1)C(=O)N[C@@H](CCC(=O)O)C(=O)N[C@@H](CC(C)C)C(=O)N[C@@H](C)C(=O)N[C@H](C(=O)N[C@@H](CC(C)C)C(=O)N1CCC[C@H]1C(=O)N[C@@H](CCCNC(=N)N)C(=O)N[C@H](C(=O)N[C@@H](CCC(=O)O)C(=O)N[C@H](C(=O)NCC(=O)N1CCC[C@H]1C(=O)N[C@@H](CCC(=O)O)C(=O)N[C@@H](CO)C(=O)N1CCC[C@H]1C(N)=O)[C@@H](C)O)[C@@H](C)O)[C@@H](C)O` ({C18 diacid}-EASELSTAALGRLSAELHELATLPRTETGPESP-NH2) gave an Activity [1] of 79%, an Activity [2] of 60.67% and an EC50 [3] of 8 pM. The EC50 [4] was 5 pM, the solubility at 18 h [5] was ≥ 200 µM and the solubility at 18 h [6] was ≥ 200 µM. For the same molecule, the solubility at 18 h [7] was ≥ 200 µM, the solubility at 18 h [8] was ≥ 200 µM and the solubility at 18 h [9] was ≥ 200 µM. The solubility at 18 h [10] was ≥ 200 µM, the solubility at 18 h [11] was ≥ 200 µM and the solubility at 18 h [12] was ≥ 200 µM. It also gave a half-life at 1600 µM [13] of 67 h, an AUC/dose [14] of 732 kg·h/L and a half-life at 1600 µM [15] of 67 h. For the same molecule, the AUC/dose [16] was 712 kg·h/L, the Activity [17] was 90.6% and the Activity [18] was 88.9%. It also gave an Activity [19] of 93.4%, an Activity [20] of 83.2% and an IC50 [21] of 902 pM.
